# Source: patent EP0446748A2, “Use of perylenedyes for the preparation of write, print or copying materials” (priority 1990, dated 1991)
# Test: Solubility of the dyes in organic solvent, determined after one week of the solution in contact with the solid dye with occasional shaking
# Assay type: physicochemical
# Settings: 10080 min; for Löslichkeit (CHCl₃/20^oC) / Löslichkeit (n-Heptan/20^oC): 20 °C; for Löslichkeit (n-Heptan) / Löslichkeit (CHCl₃): temperature not given
# Text: Die Perylenfarbstoffe werden aus technischen Perylen-3,4:9,10-tetracarbonsäurebisanhydrid (2,55 mmol), dem entsprechenden primären Amin oder dem Aminhydrochlorid (6 mmol) und Imidazol (5 g) dargestellt und werden entsprechend der Literatur gereinigt (siehe z.B. Chem. Ber. 118 4641 (1985) und Chem. Ber. 121 225 (1988)). Die Angaben beziehen sich auf die Darstellung von hochreine Farbstoffen. Die Perylenfarbstoffe der allgemeinen Formel I mit R¹ = R² = Hexyl, Dodecyl, Octadecyl, Cycloalkyl bis zu Cyclopentadecyl und sec-Alkyl bis 1-Hexylheptyl sind in Chem. Ber. 121 225 (1988) beschriebn. Die Löslichkeiten der Farbstoffe sind nach einer Woche der Lösung mit dem festen Farbstoff bei gelegentlichem Umschütteln bestimmt worden.
smiles,measurement,value
"CCCN1C(=O)c2ccc3c4ccc5c6c(ccc(c7ccc(c2c37)C1=O)c64)C(=O)N(CCC)C5=O [N,N'-Di(1-Propyl)perylen-3,4:9,10-bis(dicarboximid)]",Löslichkeit (CHCl₃/20^oC),"5,3 mg/100 ml"
"CCCCN1C(=O)c2ccc3c4ccc5c6c(ccc(c7ccc(c2c37)C1=O)c64)C(=O)N(CCCC)C5=O [N,N'-Di(1-butyl)perylen-3,4:9,10-bis(dicarboximid)]",Löslichkeit (CHCl₃/20^oC),"8,9 mg/100 ml"
"CCCCCCCCCCC(CCCCCCCCCC)N1C(=O)c2ccc3c4ccc5c6c(ccc(c7ccc(c2c37)C1=O)c64)C(=O)N(C(CCCCCCCCCC)CCCCCCCCCC)C5=O [N,N'-Di(1-decylundecyl)Perylen-3,4:9,10-bis(dicarboximid)]",Löslichkeit (n-Heptan),4.8 g/100 ml
"CCCCCCCCCCCCC(CCCCCCCCCCCC)N1C(=O)c2ccc3c4ccc5c6c(ccc(c7ccc(c2c37)C1=O)c64)C(=O)N(C(CCCCCCCCCCCC)CCCCCCCCCCCC)C5=O [N,N'-Di(1-dodecyltridecyl)perylen-3,4:9,10-bis(dicarboximid)]",Löslichkeit (n-Heptan),67 mg/100 ml
"CCCCCCCC(CCCCCCC)N1C(=O)c2ccc3c4ccc5c6c(ccc(c7ccc(c2c37)C1=O)c64)C(=O)N(C(CCCCCCC)CCCCCCC)C5=O [N,N'-Di(1-heptyloctyl)perylen-3,4:9,10-bis(dicarboximid)]",Löslichkeit (n-Heptan/20^oC),0.59 g/100ml
"CCCCCCCCCCCCCCCCC(CCCCCCCCCCCCCCCC)N1C(=O)c2ccc3c4ccc5c6c(ccc(c7ccc(c2c37)C1=O)c64)C(=O)N(C(CCCCCCCCCCCCCCCC)CCCCCCCCCCCCCCCC)C5=O [N,N'-Di(1-hexadecylheptadecyl)perylen-3,4:9,10-bis(dicarboximid)]",Löslichkeit (n-Heptan),0.13 g/100 ml
"CCCCCCCCCC(CCCCCCCCC)N1C(=O)c2ccc3c4ccc5c6c(ccc(c7ccc(c2c37)C1=O)c64)C(=O)N(C(CCCCCCCCC)CCCCCCCCC)C5=O [N,N'-Di(1-nonyldecyl)perylen-3,4:9,10-bis(dicarboximid)]",Löslichkeit (n-Heptan),35 g/100 ml
"CCCCCCCCCCCCCCCCCCC(CCCCCCCCCCCCCCCCCC)N1C(=O)c2ccc3c4ccc5c6c(ccc(c7ccc(c2c37)C1=O)c64)C(=O)N(C(CCCCCCCCCCCCCCCCCC)CCCCCCCCCCCCCCCCCC)C5=O [N,N'-Di(1-octadecylnonadecyl)perylen-3,4:9,10-bis(dicarboximid)]",Löslichkeit (n-Heptan),26 mg/100 ml
"CCCCCCCCC(CCCCCCCC)N1C(=O)c2ccc3c4ccc5c6c(ccc(c7ccc(c2c37)C1=O)c64)C(=O)N(C(CCCCCCCC)CCCCCCCC)C5=O [N,N'-Di(1-octylnonyl)perylen-3,4:9,10-bis(dicarboximid)]",Löslichkeit (n-Heptan/20^oC),0.30 g/100ml
"CCCCCN1C(=O)c2ccc3c4ccc5c6c(ccc(c7ccc(c2c37)C1=O)c64)C(=O)N(CCCCC)C5=O [N,N'-Di(1-pentyl)perylen-3,4:9,10-bis(dicarboximid)]",Löslichkeit (CHCl₃/20^oC),47 mg/100 ml
"CCCCCCCCCCCCCCCCN1C(=O)c2ccc3c4ccc5c6c(ccc(c7ccc(c2c37)C1=O)c64)C(=O)N(CCCCCCCCCCCCCCCC)C5=O [N,N'-Di(n-hexadecyl)perylen-3,4:9,10-bis(dicarboximid)]",Löslichkeit (CHCl₃),6.0 mg/100 ml
"CCCCCCCCCN1C(=O)c2ccc3c4ccc5c6c(ccc(c7ccc(c2c37)C1=O)c64)C(=O)N(CCCCCCCCC)C5=O [N,N'-Di(n-nonyl)perylen-3,4:9,10-bis(dicarboximid)]",Löslichkeit (CHCl₃/20^oC),11 mg/100 ml
"CCCCCCCCCCCCCCCCCCN1C(=O)c2ccc3c4ccc5c6c(ccc(c7ccc(c2c37)C1=O)c64)C(=O)N(CCCCCCCCCCCCCCCCCC)C5=O [N,N'-Di(n-octadecyl)perylen-3,4:9,10-bis(dicarboximid)]",Löslichkeit (CHCl₃),"1,8 mg/100 ml"
"CCCCCCCCCCCCCCN1C(=O)c2ccc3c4ccc5c6c(ccc(c7ccc(c2c37)C1=O)c64)C(=O)N(CCCCCCCCCCCCCC)C5=O [N,N'-Di(n-tetradecyl)perylen-3,4:9,10-bis(dicarboximid)]",Löslichkeit (CHCl₃),5.4 mg/100 ml
"O=C1c2ccc3c4ccc5c6c(ccc(c7ccc(c2c37)C(=O)N1C1CCCCCCCCCCCCCCC1)c64)C(=O)N(C1CCCCCCCCCCCCCCC1)C5=O [N,N'-Dicyclohexadecylperylen-3,4:9,10-bis(dicarboximid)]",Löslichkeit (CHCl₃),0.56 g/100ml
